Test results: PubChem BioAssay (NCI)
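Each compound was tested at five concentrations against cells in 96-well plates for 48 hours. GI50 marks 50% less growth. The concentration for full growth arrest is given as TGI.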

Tests used:
Test in all cases: inhibition of tumour cell growth, NCI panel, 48 h
[1] = test system: MCF7 breast
[2] = test system: OVCAR-4 ovarian
[3] = test system: HCC-2998 colon
[4] = test system: HS 578T breast
[5] = test system: IGROV1 ovarian
[6] = test system: OVCAR-5 ovarian
[7] = test system: HCT-15 colon
[8] = test system: SK-MEL-28 melanoma
[9] = test system: HOP-92 NSCLC
[10] = test system: NCI-H522 lung
[11] = test system: SK-OV-3 ovarian
[12] = test system: KM12 colon
[13] = test system: SNB-75 CNS
[14] = test system: NCI-H226 lung
[15] = test system: RPMI-8226 leukemia
[16] = test system: SF-539 CNS
[17] = test system: MOLT-4 leukemia
[18] = test system: DU-145 prostate
[19] = test system: HOP-62 NSCLC
[20] = test system: LOX IMVI melanoma
[21] = test system: UACC-62 melanoma
[22] = test system: HL-60(TB) leukemia
[23] = test system: NCI/ADR-RES ovarian
[24] = test system: 786-0 renal
[25] = test system: U251 CNS
[26] = test system: BT-549 breast
[27] = test system: SW-620 colon
[28] = test system: SN12C renal
[29] = test system: T-47D breast
[30] = test system: RXF 393 renal
[31] = test system: EKVX NSCLC
[32] = test system: UO-31 renal
[33] = test system: NCI-H23 lung
[34] = test system: SK-MEL-5 melanoma
[35] = test system: SNB-19 CNS
[36] = test system: CAKI-1 renal
[37] = test system: UACC-257 melanoma
[38] = test system: SF-295 CNS
[39] = test system: A549 NSCLC
[40] = test system: SR leukemia
[41] = test system: HT29 colon
[42] = test system: HCT-116 colon
[43] = test system: OVCAR-8 ovarian
[44] = test system: K-562 leukemia
[45] = test system: SK-MEL-2 melanoma
[46] = test system: NCI-H460 lung
[47] = test system: MDA-MB-435
[48] = test system: A498 renal
[49] = test system: M14 melanoma
[50] = test system: ACHN renal
[51] = test system: MDA-MB-231 breast
[52] = test system: COLO 205 colon
[53] = test system: PC-3 prostate
[54] = test system: TK-10 renal
[55] = test system: CCRF-CEM leukemia
[56] = test system: SF-268 CNS
[57] = test system: MALME-3M melanoma

## Cn1ccnc1C(=O)/C=C/c1ccc(CNC(=O)c2ccc(Cl)cc2)cc1
[1]
  GI50: 1.75 µM
  TGI: 6.3 µM
[2]
  GI50: 3.44 µM
  TGI: > 14.3 µM
[3]
  GI50: 2.26 µM
  TGI: 4.5 µM
[4]
  GI50: 4.3 µM
  TGI: > 14.3 µM
[5]
  GI50: 2.62 µM
  TGI: 7.73 µM
[6]
  GI50: 2.52 µM
  TGI: 5.73 µM
[7]
  GI50: 1.61 µM
  TGI: 5.39 µM
[8]
  GI50: 2.53 µM
  TGI: 5.31 µM
[9]
  GI50: 3.13 µM
  TGI: 12.9 µM
[10]
  GI50: 2.47 µM
  TGI: 4.83 µM
[11]
  GI50: 5.05 µM
  TGI: > 14.3 µM
[12]
  GI50: 2.13 µM
  TGI: 4.19 µM
[13]
  GI50: 2.41 µM
  TGI: 10.3 µM
[14]
  GI50: 3.96 µM
  TGI: > 14.3 µM
[15]
  GI50: 1.82 µM
  TGI: 6.42 µM
[16]
  GI50: 2.06 µM
  TGI: 4.12 µM
[17]
  GI50: 3.82 µM
  TGI: 12.4 µM
[18]
  GI50: 2.2 µM
  TGI: 4.23 µM
[19]
  GI50: 2.43 µM
  TGI: 5.96 µM
[20]
  GI50: 0.962 µM
  TGI: 2.96 µM
[21]
  GI50: 2.41 µM
  TGI: 5.1 µM
[22]
  GI50: 3.4 µM
  TGI: 11.6 µM
[23]
  GI50: 4.03 µM
  TGI: > 14.3 µM
[24]
  GI50: 2.58 µM
  TGI: 5.76 µM
[25]
  GI50: 1.72 µM
  TGI: 4.08 µM
[26]
  GI50: 2.23 µM
  TGI: 4.65 µM
[27]
  GI50: 2.55 µM
  TGI: 5.88 µM
[28]
  GI50: 3.29 µM
  TGI: 11.4 µM
[29]
  GI50: 3 µM
  TGI: > 14.3 µM
[30]
  GI50: 2.07 µM
  TGI: 4.56 µM
[31]
  GI50: 3.71 µM
  TGI: > 14.3 µM
[32]
  GI50: 1.84 µM
  TGI: 3.74 µM
[33]
  GI50: 2.68 µM
  TGI: 6.47 µM
[34]
  GI50: 4.98 µM
  TGI: > 14.3 µM
[35]
  GI50: 2.15 µM
  TGI: 5.37 µM
[36]
  GI50: 3.34 µM
  TGI: > 14.3 µM
[37]
  GI50: 3.12 µM
  TGI: 10.2 µM
[38]
  GI50: 2.63 µM
  TGI: 6.51 µM
[39]
  GI50: 3.6 µM
  TGI: > 14.3 µM
[40]
  GI50: 0.626 µM
  TGI: > 14.3 µM
[41]
  GI50: 2.39 µM
  TGI: 5.13 µM
[42]
  GI50: 2.28 µM
  TGI: 5.05 µM
[43]
  GI50: 4.15 µM
  TGI: > 14.3 µM
[44]
  GI50: 2.2 µM
  TGI: > 14.3 µM
[45]
  GI50: 3.42 µM
  TGI: 10.8 µM
[46]
  GI50: 2.61 µM
  TGI: 6.31 µM
[47]
  GI50: 2.73 µM
  TGI: 6.37 µM
[48]
  GI50: 2.18 µM
  TGI: 4.17 µM
[49]
  GI50: 2.78 µM
  TGI: 7 µM
[50]
  GI50: 2.98 µM
  TGI: 7.42 µM
[51]
  GI50: 3.36 µM
  TGI: 14.2 µM
[52]
  GI50: 2.45 µM
  TGI: 6.05 µM
[53]
  GI50: 2.8 µM
  TGI: 7.18 µM
[54]
  GI50: 3.92 µM
  TGI: 13 µM
[55]
  GI50: 3.38 µM
  TGI: > 14.3 µM
[56]
  GI50: 2.38 µM
  TGI: 6.27 µM
[57]
  GI50: 2.84 µM
  TGI: 8.12 µM
